Test results reported in patent US8048879B2, “Substituted 4,5,6,7-tetrahydro-isoxazolo[4,5-c]pyridine compounds and use thereof for producing medicaments” (Gruenenthal GmbH, priority 2005, dated 2011).

These compounds were tested on batrachotoxin (BTX) binding site of the sodium channel (assay: Affinity for the batrachotoxin (BTX) binding site of the sodium channel, [3H]-batrachotoxinin A20 α-benzoate, rat cerebrocortex synaptosomes). Details: test concentration not given.

**Q.** With `O=C(c1noc2c1CN(S(=O)(=O)c1cc(Cl)ccc1Cl)CC2)N(CCc1ccccc1)Cc1ccccc1` [Example 59, 5-(2,5-dichloro-benzenesulfonyl)-4,5,6,7-tetrahydro-isoxazolo[4,5-c]pyridine-3-carboxylic acid benzyl-phenethyl amide] as the compound, how does the “BTX inhibition (rat) % inhibition” value read?
**A.** 58%

**Q.** For `O=C(NCCN1CCOCC1)c1noc2c1CN(S(=O)(=O)c1cc(Cl)c(Cl)s1)CC2` [Example 63, 5-(4,5-dichloro-thiophene-2-sulfonyl)-4,5,6,7-tetrahydro-isoxazolo[4,5-c]pyridine-3-carboxylic acid (2-morpholin-4-yl-ethyl) amide], which “BTX inhibition (rat) % inhibition” value is on record?
**A.** 55%

**Q.** Which “BTX inhibition (rat) % inhibition” value does the source give for `Cc1ccc(N2CCN(C(=O)c3noc4c3CN(S(=O)(=O)c3cc(Cl)ccc3Cl)CC4)CC2)c(C)c1` [Example 65, [5-(2,5-dichloro-benzenesulfonyl)-4,5,6,7-tetrahydro-isoxazolo[4,5-c]pyridin-3-yl]-[4-(2,4-dimethyl-phenyl)-piperazin-1-yl]-methanone] here?
**A.** 49%

**Q.** `O=C(c1noc2c1CN(S(=O)(=O)c1cccc(C(F)(F)F)c1)CC2)N(CCc1ccccc1)Cc1ccccc1` [Example 68, 5-(3-trifluoromethyl-benzenesulfonyl)-4,5,6,7-tetrahydro-isoxazolo[4,5-c]pyridine-3-carboxylic acid benzyl-phenethyl amide] was tested. Which “BTX inhibition (rat) % inhibition” value did it give?
**A.** 51%

**Q.** How did the “BTX inhibition (rat) % inhibition” value turn out when `CN(C)S(=O)(=O)N1CCc2onc(C(=O)NCCc3ccc(Cl)cc3)c2C1` [Example 76, 5-dimethylsulfamoyl-4,5,6,7-tetrahydro-isoxazolo[4,5-c]pyridine-3-carboxylic acid [2-(4-chlorophenyl)-ethyl] amide] was run?
**A.** 41%

**Q.** How did the “BTX inhibition (rat) % inhibition” value turn out when `O=C(NC1CCCC1)c1noc2c1CN(C(=O)COc1ccc(Cl)cc1)CC2` [Example 81, 5-[2-(4-chlorophenoxy)-acetyl]-4,5,6,7-tetrahydro-isoxazolo[4,5-c]pyridine-3-carboxylic acid cyclopentyl amide] was run?
**A.** 65%

**Q.** With `Cc1ccc(S(=O)(=O)N2CCc3onc(C(=O)N4CCN(CCC5CCCCC5)CC4)c3C2)cc1` [Example 82, [4-(2-cyclohexyl-ethyl)-piperazin-1-yl]-[5-(toluene-4-sulfonyl)-4,5,6,7-tetrahydro-isoxazolo[4,5-c]pyridin-3-yl]-methanone] as the compound, how does the “BTX inhibition (rat) % inhibition” value read?
**A.** 69%

**Q.** Which “BTX inhibition (rat) % inhibition” value does the source give for `C=CCOc1ccc(CN(Cc2ccco2)C(=O)c2noc3c2CN(S(=O)(=O)c2cccc(C(F)(F)F)c2)CC3)cc1` [Example 87, 5-(3-trifluoromethyl-benzenesulfonyl)-4,5,6,7-tetrahydro-isoxazolo[4,5-c]pyridine-3-carboxylic acid (4-allyloxy-benzyl)-furan-2-ylmethyl amide] here?
**A.** 41%

**Q.** For `Cc1cc(C(=O)N2CCc3onc(C(=O)NCCN4CCOCC4)c3C2)ccc1Br` [Example 90, 5-(4-bromo-3-methyl-benzoyl)-4,5,6,7-tetrahydro-isoxazolo[4,5-c]pyridine-3-carboxylic acid (2-morpholin-4-yl-ethyl) amide], which “BTX inhibition (rat) % inhibition” value is on record?
**A.** 42%

**Q.** Which “BTX inhibition (rat) % inhibition” value does the source give for `Cc1ccc(S(=O)(=O)N2CCc3onc(C(=O)NC4CCN(Cc5c(Cl)cccc5Cl)C4)c3C2)cc1` (stereo not shown) [Example 91, 5-(toluene-4-sulfonyl)-4,5,6,7-tetrahydro-isoxazolo[4,5-c]pyridine-3-carboxylic acid [1-(2,6-dichloro-benzyl)-pyrrolidin-3-yl] amide] here?
**A.** 61%

**Q.** `O=C(NCCN1CCCC1)c1noc2c1CN(C(=O)COc1cccc(Cl)c1)CC2` [Example 94, 5-[2-(3-chlorophenoxy)-acetyl]-4,5,6,7-tetrahydro-isoxazolo[4,5-c]pyridine-3-carboxylic acid (2-pyrrolidin-1-yl-ethyl) amide] was tested. Which “BTX inhibition (rat) % inhibition” value did it give?
**A.** 60%

**Q.** Which “BTX inhibition (rat) % inhibition” value does the source give for `O=C(c1noc2c1CN(S(=O)(=O)c1ccccc1)CC2)N1CCN(CC=Cc2ccccc2)CC1` [Example 97, (5-benzenesulfonyl-4,5,6,7-tetrahydro-isoxazolo[4,5-c]pyridin-3-yl)-[4-(3-phenyl-allyl)-piperazin-1-yl]-methanone] here?
**A.** 70%

**Q.** `Cc1cc(C(=O)N2CCc3onc(C(=O)NCCN4CCCC4)c3C2)ccc1Br` [Example 102, 5-(4-bromo-3-methyl-benzoyl)-4,5,6,7-tetrahydro-isoxazolo[4,5-c]pyridine-3-carboxylic acid (2-pyrrolidin-1-yl-ethyl) amide] was tested. Which “BTX inhibition (rat) % inhibition” value did it give?
**A.** 73%

**Q.** How did the “BTX inhibition (rat) % inhibition” value turn out when `O=C(NC1CCN(Cc2ccc(C(F)(F)F)cc2)C1)c1noc2c1CN(S(=O)(=O)c1ccccc1)CC2` (stereo not shown) [Example 103, 5-benzenesulfonyl-4,5,6,7-tetrahydro-isoxazolo[4,5-c]pyridine-3-carboxylic acid [1-(4-trifluoromethyl-benzyl)-pyrrolidin-3-yl] amide] was run?
**A.** 92%

**Q.** With `CC(CNC(=O)c1noc2c1CN(S(=O)(=O)c1cccs1)CC2)c1ccccc1` (stereo not shown) [Example 104, 5-(thiophene-2-sulfonyl)-4,5,6,7-tetrahydro-isoxazolo[4,5-c]pyridine-3-carboxylic acid (2-phenyl-propyl) amide] as the compound, how does the “BTX inhibition (rat) % inhibition” value read?
**A.** 50%

**Q.** Which “BTX inhibition (rat) % inhibition” value does the source give for `COc1ccc(OCCNC(=O)c2noc3c2CN(S(=O)(=O)c2ccc(C)cc2)CC3)cc1` [Example 109, 5-(toluene-4-sulfonyl)-4,5,6,7-tetrahydro-isoxazolo[4,5-c]pyridine-3-carboxylic acid [2-(4-methoxy-phenoxy)-ethyl] amide] here?
**A.** 56%

**Q.** For `O=C(c1noc2c1CN(S(=O)(=O)c1cc(Cl)ccc1Cl)CC2)N1CCN(c2ccccc2Cl)CC1` [Example 110, [4-(2-chlorophenyl)-piperazin-1-yl]-[5-(2,5-dichloro-benzenesulfonyl)-4,5,6,7-tetrahydro-isoxazolo[4,5-c]pyridin-3-yl]-methanone], which “BTX inhibition (rat) % inhibition” value is on record?
**A.** 55%

**Q.** `O=C(NCc1ccc(C(F)(F)F)c(F)c1)c1noc2c1CN(S(=O)(=O)c1ccccc1)CC2` [Example 113, 5-benzenesulfonyl-4,5,6,7-tetrahydro-isoxazolo[4,5-c]pyridine-3-carboxylic acid 3-fluoro-4-trifluoromethyl-benzyl amide] was tested. Which “BTX inhibition (rat) % inhibition” value did it give?
**A.** 60%

**Q.** Which “BTX inhibition (rat) % inhibition” value does the source give for `CCCCOc1ccc(S(=O)(=O)N2CCc3onc(C(=O)NCC(C)C)c3C2)cc1` [Example 114, 5-(4-butoxy-benzenesulfonyl)-4,5,6,7-tetrahydro-isoxazolo[4,5-c]pyridine-3-carboxylic acid isobutyl amide] here?
**A.** 58%

**Q.** For `O=C(NCCN1CCCC1)c1noc2c1CN(S(=O)(=O)c1cccc(Cl)c1)CC2` [Example 118, 5-(3-chloro-benzenesulfonyl)-4,5,6,7-tetrahydro-isoxazolo[4,5-c]pyridine-3-carboxylic acid (2-pyrrolidin-1-yl-ethyl) amide], which “BTX inhibition (rat) % inhibition” value is on record?
**A.** 76%

**Q.** With `CC(C)CNC(=O)c1noc2c1CN(C(=O)C(NC(=O)OCc1ccccc1)c1ccccc1)CC2` (stereo not shown) [Example 126, [2-(3-isobutylcarbamoyl-6,7-dihydro-4H-isoxazolo[4,5-c]pyridin-5-yl)-2-oxo-1-phenyl-ethyl]-carbamic acid benzyl ester] as the compound, how does the “BTX inhibition (rat) % inhibition” value read?
**A.** 88%

**Q.** Which “BTX inhibition (rat) % inhibition” value does the source give for `COc1ccc(CNC(=S)N2CCc3onc(C(=O)NC4CCCC4)c3C2)cc1` [Example 127, 5-(4-methoxy-benzylthiocarbamoyl)-4,5,6,7-tetrahydro-isoxazolo[4,5-c]pyridine-3-carboxylic acid cyclopentyl amide] here?
**A.** 74%
